A short description of experiment [1]: Cytotoxicity against mouse B16-F1cells. Format: functional, cell-based. To be noted: B16-F1.
Another experiment has as its system HeLa. As to the kind of experiment: Cytotoxicity against human HeLa S3 cells. In kind it is functional, cell-based.
A further experiment has as its system Jurkat. The experiment can be described thus: Cytotoxicity against human Jurkat cells. Format: functional, cell-based.
Another experiment has as its system HL-60. As to the kind of experiment: Cytotoxicity against human HL60 cells. Format: functional, cell-based.
The subject of experiment [2] is Pyricularia grisea. The experiment can be described thus: Inhibition of hydrophobic gel bonded surface-induced appressorium formation in germinating conidia of Magnaporthe grisea P1. In kind it is functional, organism-based.
The subject of experiment [3] is Pyricularia grisea. As to the kind of experiment: Inhibition of 1,16-hexadecanediol-induced appressorium formation in germinating conidia of Magnaporthe grisea P1. Format: functional, organism-based.
Experiment [4] has as its system Pyricularia grisea. The experiment can be described thus: Inhibition of chlorophenylthio-cAMP-induced appressorium formation in germinating conidia of Magnaporthe grisea P1. Format: functional, organism-based.

Two compounds from ChEMBL document CHEMBL1155593, “Bioactive sesquiterpenes from the basidiomycete Resupinatus leightonii” (J Nat Prod, 2000) can be followed below.

Values after ≈ are worked out from the molar mass of the structure shown. Active and inactive are the calls of the source. The calls are words filed in the database; no cut-off is given here. Bounds are passed on as bounds.

For the compound `C/C1=C\[C@@H](O)C/C(C)=C/[C@H](O)[C@H]([C@@H](C)CO)CC1`, the IC50 was above 100 µg/mL in experiment [1]; above 100 µg/mL with HeLa; 20 µg/mL (≈ 78.6 µM) in the experiment with Jurkat; 10 µg/mL (≈ 39.3 µM) in the experiment with HL-60; 50 µg/mL (≈ 197 µM) in the experiment on Pyricularia grisea [4]. The result in the experiment on Pyricularia grisea [2] and in the experiment on Pyricularia grisea [3] was inactive.

For the compound `C=C[C@@](C)(O)CC/C=C(\C)CC[C@H](O)C(C)(C)O`, the half-inhibitory concentration (IC50) in experiment [1] amounted to 75 µg/mL (≈ 293 µM); in the experiment on HeLa it was 75 µg/mL (≈ 293 µM); in the experiment on Jurkat it was 20 µg/mL (≈ 78 µM); with HL-60 it was 5 µg/mL (≈ 19.5 µM); in the experiment on Pyricularia grisea [4], 10 µg/mL (≈ 39 µM). For the same compound, the result in the experiment with Pyricularia grisea [2] and with Pyricularia grisea [3] was inactive.

What is called IC50 is the concentration needed to halve the response being measured. Read a low IC50 as inhibition by little substance.
